Assay [1] concerns ALOMY. Kind of assay: Post-emergence herbicidal action against ALOMY. It is filed as in vivo, Alopecurus myosuroides. The note with it: 80 g/ha, visual assessment after about 3 weeks. Summed up: (§1)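 Weeds and crops grown in sandy loam in the greenhouse, treated post-emergence at the one-leaf stage (2–3 weeks after sowing). WP or EC formulations sprayed as aqueous suspension/emulsion at 600–800 l/ha water with 0.2% wetting agent. Visual % activity scored after about 3 weeks versus untreated controls (100% = dead, 0% = like control).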

Assay [2] deals with AVEFA. Kind of assay: Post-emergence herbicidal action against AVEFA. The following applies: 80 g/ha, visual assessment after about 3 weeks. The format is in vivo, Avena fatua. Summed up:
as §1

Assay [3] has as its system DIGSA. Kind of assay: Post-emergence herbicidal action against DIGSA. The format is in vivo, Digitaria sanguinalis. The note with it: 80 g/ha, visual assessment about 3 weeks after treatment vs untreated controls. Summed up:
as §1

For assay [4], the system named is ECHCG. The assay can be described thus: Post-emergence herbicidal action against ECHCG. The format is in vivo, Echinochloa crus-galli. The following applies: 80 g/ha, visual assessment about 3 weeks after treatment vs untreated controls. Summed up: as §1
Assay [5] has as its system LOLRI. Kind of assay: Post-emergence herbicidal action against LOLRI. The format is in vivo, Lolium rigidum. The note with it: 80 g/ha, visual assessment about 3 weeks after treatment vs untreated controls. Summed up:
as §1

Assay [6] has as its system SETVI. The assay can be described thus: Post-emergence herbicidal action against SETVI. The following applies: 80 g/ha, visual assessment about 3 weeks after treatment vs untreated controls. It is filed as in vivo, Setaria viridis. Summed up:
as §1

The test system of assay [7] is ABUTH. Kind of assay: Post-emergence herbicidal action against ABUTH. It is filed as in vivo, Abutylon threophrasti. The note with it: 80 g/ha, visual assessment about 3 weeks after treatment vs untreated controls. Summed up: as §1
Assay [8] relates to VIOTR. The assay can be described thus: Post-emergence herbicidal action against VIOTR. The format is in vivo, Viola tricolor. The following applies: 80 g/ha, visual assessment about 3 weeks after treatment vs untreated controls. The procedure: (§2) Seeds of monocotyledonous and dicotyledonous weed and crop plants are laid out in sandy loam soil in wood-fiber pots, covered with soil and cultivated in a greenhouse under good growth conditions. 2 to 3 weeks after sowing, the test plants are treated at the one-leaf stage. The compounds of the invention, formulated in the form of wettable powders (WP) or as emulsion concentrates (EC), are then sprayed onto the green parts of the plants as aqueous suspension or emulsion at a water application rate equating to 600 to 800 l/ha with addition of 0.2% wetting agent. After the test plants have been left to stand in the greenhouse under optimal growth conditions for about 3 weeks, the action of the preparations is assessed visually in comparison to untreated controls (herbicidal action in percent (%): 100% activity=the plants have died, 0% activity=like control plants).

Assay [9] relates to HORMU. Kind of assay: Post-emergence herbicidal action against HORMU. The note with it: 80 g/ha, visual assessment about 3 weeks after treatment vs untreated controls. It is filed as in vivo, Hordeum murinum. As for the experimental part: as §2
The test system of assay [10] is ALOMY. Kind of assay: Pre-emergence herbicidal action against ALOMY. The format is in vivo, Alopecurus myosuroides. The following applies: 320 g/ha, scored visually after 3 weeks vs untreated controls. Summed up:
(§3)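 Pre-emergence soil-surface application: WP/EC in water, 600 to 800 L/ha, + 0.2% wetting agent, onto soil-covered seeds in sandy loam. Greenhouse, 3 wk. Visual % activity vs untreated (100% = dead).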

In assay [11] the test system is AVEFA. Kind of assay: Pre-emergence herbicidal action against AVEFA. The format is in vivo, Avena fatua. The following applies: 320 g/ha, scored visually after 3 weeks vs untreated controls. The procedure, abridged:
as §3

Assay [12] deals with DIGSA. Kind of assay: Pre-emergence herbicidal action against DIGSA. The format is in vivo, Digitaria sanguinalis. The note with it: 320 g/ha, scored visually after 3 weeks vs untreated controls. The procedure, abridged:
as §3

The subject of assay [13] is ECHCG. Kind of assay: Pre-emergence herbicidal action against ECHCG. It is filed as in vivo, Echinochloa crus-galli. The note with it: 320 g/ha, scored visually after 3 weeks vs untreated controls. The procedure, abridged: as §3
Assay [14] concerns LOLRI. The assay can be described thus: Pre-emergence herbicidal action against LOLRI (Table 8, titled post-emergence at 320 g/ha). The following applies: table stands in the pre-emergence section. It is filed as in vivo, Lolium rigidum. The procedure, abridged:
as §3

For assay [15], the system named is SETVI. Kind of assay: Pre-emergence herbicidal action against SETVI. It is filed as in vivo, Setaria viridis. The following applies: 320 g/ha, scored visually after 3 weeks vs untreated controls. The procedure, abridged:
as §3

Assay [16] has as its system MATIN. Kind of assay: Pre-emergence herbicidal action against MATIN. The format is in vivo. The note with it: 320 g/ha. The procedure, abridged:
as §3

Assay [17] concerns VIOTR. Kind of assay: Pre-emergence herbicidal action against VIOTR. It is filed as in vivo, Viola tricolor. The note with it: 320 g/ha. The procedure, abridged: as §3
For assay [18], the system named is VERPE. The assay can be described thus: Pre-emergence herbicidal action against VERPE. It is filed as in vivo, Veronica persica. The following applies: 320 g/ha. The procedure, abridged:
as §3

The test system of assay [19] is ABUTH. The assay can be described thus: Pre-emergence herbicidal action against ABUTH. It is filed as in vivo, Abutylon threophrasti. The following applies: 320 g/ha. An excerpt:
Seeds of monocotyledonous and dicotyledonous weed plants and crop plants are laid out in sandy loam soil in wood-fiber pots and covered with soil. The compounds of the invention, formulated in the form of wettable powders (WP) or as emulsion concentrates (EC), are then applied to the surface of the covering soil as aqueous suspension or emulsion at a water application rate equating to 600 to 800 L/ha with addition of 0.2% wetting agent.
After the treatment, the pots are placed in a greenhouse and kept under good growth conditions for the trial plants. The damage to the test plants is scored visually after a test period of 3 weeks by comparison with untreated controls (herbicidal activity in percent (%): 100% activity=the plants have died, 0% activity=like control plants).

Turning to `CC#Cc1cc(C)c(C2=C(OC(=O)C(C)C)C3(CCC(COCC)C3)NC2=O)c(Cl)c1` (centres unmarked) [Example P-17], in assay [1], the “Post-emergence action against ALOMY in %” value is 100%. In addition, in assay [2], the “Post-emergence action against AVEFA in %” value is 100%. Besides, the “Post-emergence action against DIGSA in %” value in [3] worked out at 100%. Besides, in assay [4], the “Post-emergence action against ECHCG in %” value is 100%. In addition, in assay [5], the “Post-emergence action against LOLRI in %” value was determined as 100%. For the same compound, the “Post-emergence action against SETVI in %” value in [6] is 100%. In addition, the “Post-emergence action against ABUTH in %” value in assay [7] is listed as 90%. Also, in assay [8], the “Post-emergence action against VIOTR in %” value is listed as 80%. Also, the “Post-emergence action against HORMU in %” value in assay [9] is on record as 100%.

As for `CC#Cc1cc(C)c(C2=C(OC(=O)OCC)C3(CCC(COCC)C3)NC2=O)c(OC)c1` (centres unmarked) [Example P-49], the “Pre-emergence action against ALOMY in %” value in assay [10] was 100%. In assay [11], the “Pre-emergence action against AVEFA in %” value is listed as 100%. Moreover, in [12], the “Pre-emergence action against DIGSA in %” value is listed as 100%. Further, the “Pre-emergence action against ECHCG in %” value in assay [13] amounted to 100%. Moreover, in assay [14], the “Pre-emergence herbicidal action against LOLRI in %” value was 100%. Further, the “Pre-emergence action against SETVI in %” value in assay [15] is 100%. In addition, the “Pre-emergence action against MATIN in %” value in [16] came to 80%. Further, in assay [17], the “Pre-emergence action against VIOTR in %” value worked out at 100%. In addition, in assay [18], the “Pre-emergence action against VERPE in %” value was determined as 80%. The “Post-emergence action against ALOMY in %” value in assay [1] was found to be 100%. Moreover, the “Post-emergence action against AVEFA in %” value in [2] worked out at 90%. Moreover, in assay [3], the “Post-emergence action against DIGSA in %” value came to 90%. The “Post-emergence action against ECHCG in %” value in assay [4] stood at 100%. Besides, the “Post-emergence action against LOLRI in %” value in assay [5] amounted to 100%. In [6], the “Post-emergence action against SETVI in %” value amounted to 100%. Also, in [8], the “Post-emergence action against VIOTR in %” value worked out at 80%.

For the compound `CC#Cc1cc(C)c(C2=C(OC(=O)OCC)C3(CCC(COCC)C3)NC2=O)c(Br)c1` (centres unmarked) [Example P-34], the “Pre-emergence action against ALOMY in %” value in assay [10] came out at 100%. Besides, in [11], the “Pre-emergence action against AVEFA in %” value was found to be 100%. Besides, the “Pre-emergence action against DIGSA in %” value in assay [12] was determined as 100%. Further, the “Pre-emergence action against ECHCG in %” value in assay [13] stood at 100%. In assay [14], the “Pre-emergence herbicidal action against LOLRI in %” value is reported as 100%. Also, in [15], the “Pre-emergence action against SETVI in %” value came to 100%. Besides, the “Pre-emergence action against ABUTH in %” value in assay [19] is 90%. Besides, the “Pre-emergence action against VIOTR in %” value in assay [17] is listed as 100%. For the same compound, the “Pre-emergence action against VERPE in %” value in assay [18] came out at 80%. For the same compound, in [1], the “Post-emergence action against ALOMY in %” value is given as 100%. For the same compound, in assay [2], the “Post-emergence action against AVEFA in %” value came out at 90%. The “Post-emergence action against DIGSA in %” value in assay [3] came to 100%. Further, in assay [4], the “Post-emergence action against ECHCG in %” value was 100%. Also, the “Post-emergence action against LOLRI in %” value in [5] came to 90%. The “Post-emergence action against SETVI in %” value in [6] was 100%. Moreover, the “Post-emergence action against VIOTR in %” value in assay [8] was 80%.

Source of the values: patent US20220386606A1, “SPECIFICALLY SUBSTITUTED 3-PHENYL-5-SPIROCYCLOPENTYL-3-PYRROLIN-2-ONES AND THEIR USE AS HERBICIDES” (Bayer Aktiengesellschaft, priority 2019, published 2022).
